Source: ChEMBL document CHEMBL3046101, “Synthesis and Biological Activity of 1,2-Dithiolanes and 1,2-Dithianes Bearing a Nitrogen-containing Substituent” (1992)

Columns and labels:
Format in all cases: functional
Nilaparvata lugens = experiment: Insecticidal activity against Nilaparvata lugens (brown planthopper) assessed as mortality at 50 ppm
Tetranychus urticae [1] = experiment: Acaricidal activity against Tetranychus urticae (two-spotted spider mite) assessed as mortality at 500 ppm
Chilo suppressalis [2] = experiment: Insecticidal activity against Chilo suppressalis (rice stem borer) assessed as mortality at 50 ug/g administered as topical application
Spodoptera litura = experiment: Insecticidal activity against Spodoptera litura assessed as mortality at 500 ppm
Culex pipiens molestus = experiment: Insecticidal activity against Culex pipiens molestus assessed as mortality at 5 ppm
Chilo suppressalis [3] = experiment: Insecticidal activity against Chilo suppressalis (rice stem borer) assessed as mortality compound administered as topical application
Tetranychus urticae [4] = experiment: Acaricidal activity against Tetranychus urticae (two-spotted spider mite) assessed as mortality

Row | SMILES | mortality at 50 ppm (Nilaparvata lugens) | mortality at 500 ppm (Tetranychus urticae [1]) | mortality (Chilo suppressalis [2]) | mortality at 500 ppm (Spodoptera litura) | mortality at 5 ppm (Culex pipiens molestus) | LD50 (Chilo suppressalis [3]) | LC50 (Tetranychus urticae [4])
1 | CC(C)C1CSSC1 | 0% | 50% | 20% | 20% | 0% | – | –
2 | CC1CSSC1CN(C)C.O=C(O)C(=O)O (stereo not drawn) | 75% | 100% | 80% | 0% | 0% | 50 mg/kg | 209 µg/mL
3 | CN(C)N(C)C1CSSC1.O=C(O)C(=O)O | 60% | 100% | 100% | 0% | 100% | 15 mg/kg | –
4 | CN(C)NC1CSSC1.O=C(O)C(=O)O | 45% | 100% | 100% | 0% | 25% | 36.2 mg/kg | –
5 | CN(C)C[C@H]1C[C@@H](CN(C)C)SS1.O=C(O)C(=O)O | 5% | 100% | 0% | 30% | 0% | – | 20 µg/mL
6 | CN(C)CC1CCSS1.O=C(O)C(=O)O (stereo not drawn) | 80% | 100% | 100% | 30% | 100% | 4.3 mg/kg | –
7 | CN(C)C[C@H]1C[C@H](CN(C)C)SS1.O=C(O)C(=O)O (relative stereo) | 20% | 90% | 0% | 0% | 0% | – | 116 µg/mL
8 | CN(C)CCCC1CSSC1.O=C(O)C(=O)O | 10% | 100% | 60% | 0% | 40% | – | –
9 | O=C(O)C(=O)O.c1ccc(C2CSSC2)nc1 | 70% | 100% | 10% | 0% | 100% | – | –
10 | CN(C)CC1CCCSS1.O=C(O)C(=O)O (stereo not drawn) | 50% | 20% | 0% | 0% | 0% | – | –
11 | CN(C)CC1(C)CSSC1.O=C(O)C(=O)O | 100% | 90% | 70% | 40% | 100% | – | –
12 | CN(C)CC1CSSC1.O=C(O)C(=O)O | 100% | 100% | 100% | 90% | 100% | – | 88 µg/mL
13 | CN1CCCCC1C1CSSC1.O=C(O)C(=O)O (stereo not drawn) | 100% | 100% | 70% | 10% | 95% | – | –
14 | CN(C)CCC1CCSS1.O=C(O)C(=O)O (stereo not drawn) | 20% | 100% | 100% | 0% | 100% | 23.2 mg/kg | 126 µg/mL
15 | CC1CC(CN(C)C)SS1.O=C(O)C(=O)O (stereo not drawn) | 95% | 100% | 80% | 20% | 0% | – | –
16 | CN(C)CC1CCC(CN(C)C)SS1.O=C(O)C(=O)O (stereo not drawn) | 0% | 100% | 0% | 0% | 0% | – | –
17 | CN(C)CCCCC1CSSC1.O=C(O)C(=O)O | 20% | 100% | 0% | 0% | 75% | – | –
18 | CN(C)CCC1CSSC1.O=C(O)C(=O)O | 100% | 100% | 100% | 40% | 95% | 28.1 mg/kg | –
19 | CN(C)C1CSSC1.O=C(O)C(=O)O [NEREISTOXIN HYDROGEN OXALATE] | 100% | 50% | 100% | 30% | 100% | 1.7 mg/kg | 603 µg/mL
20 | O=C(O)C(=O)O.O=[N+]([O-])c1cccc2c1SSC2 | 80% | 100% | 10% | 30% | 95% | – | –
